≈ marks a conversion by molar mass, not a printed value. Counter-ions that a name gives are not always drawn. Like-named read-outs stand apart in the source and are kept apart here.
Experiments:
Assay type in all cases: cell-based
P. aeruginosa ATCC 27853 = assay: In vitro antibacterial evaluation, MIC by agar dilution, P. aeruginosa ATCC 27853; conditions: Pseudomonas aeruginosa, ATCC27853, read-out: MIC
Experimental: (§1) The compounds of the invention were evaluated against several β-lactamresistant bacteria strains by determining the minimum inhibitory concentration (MIC, μg/ml) of each compound with respect to each strain. The MIC, the lowest concentration of antibiotic which inhibits growth of the test organism, was determined by the agar dilution method.
(§2) To determine the MIC for bacterial isolates, the test compound was incorporated in a series of two-fold dilutions into liquified Mueller-Hinton agar. Upon solidification, a number of different bacterial strains were spot inoculated with a replicating device onto the agar surface. […] The procedures used in these studies have been standardized by the National Committee for Clinical Laboratory Standards (NCCLS), as per the NCCLS publication entitled METHODS FOR DILUTION ANTIMICROBIAL SUSCEPTIBILITY TESTS (1991), which is incorporated herein by reference.
(§3) Aliquots of antimicrobial agents were prepared in phosphate buffered saline (PBS) at pH 7.2. Tween 20 or DMSO was used as a solubilizing vehicle as needed. Standard methods of vortexing, sonicating and gentle heat were used to facilitate solubilizing the test agent. Typically, the concentration of the stock solution was 10× that of the highest drug concentration tested. A 1.28 mg/mL stock solution was used with a subsequent highest working concentration of 128 μg/mL. Serial two-fold dilutions were done through ≤0.25 μg/mL. Each drug level was tested in duplicate. Two-fold drug dilutions were done in sterile 50 mL tubes with a final drug volume of 5 mL. Upon the addition of 45 mL of molten agar, a 10-fold dilution resulted. Two, 25 mL. plates were then poured into 15×150 mm square Petri plates with grids and allowed to harden.
(§4) A control plate with a reference drug, either cefotaxime, vancomycin or imipenem, was used as the positive growth control. Stock concentrations of reference antibiotics were prepared and frozen at -80° C. Upon preparation, the control plates were sealed and stored in the refrigerator for up to 1 week prior to use; however, imipenem control plates had to be prepared just prior to use. All test plates were used within 24 hours of preparation.
(§5) Satisfactory results were obtained where the inoculum contained about 10^4 colony forming units (cfu) ±0.5 logs. Starting with pure cultures of the test isolates on agar plates, a few isolated colonies were transferred to a tube of nutrient broth and allowed to grow 4-6 hours at 35°-36° C. to reach log-phase growth. Dropwise addition of the broth culture to PBS was done to match a 0.5 McFarland turbidity standard equal to 10^8 cfu/mL. This was further diluted ten-fold in PBS to reach a working inoculum concentration of 10^7 cfu/mL. When 1 μL of the working inoculum was applied to the agar surface a concentration of about 10^4 cfu per spot was obtained.
(§6) Disposable sterile 1 μL loops were used to inoculate test plates, with each isolate in a designated grid on the agar plate. An alternate method of inoculation involved the use of a replica plater, a device with 48 steel pins allowing the simultaneous inoculation of multiple isolates. After the spots had dried, the plates were incubated at 35°-36° C. for 16-20 hours. Endpoints were assessed as the minimum inhibitory concentration (MIC) of antimicrobial agent.

E. faecalis ATCC 29212 = assay: In vitro antibacterial evaluation, MIC by agar dilution, E. faecalis ATCC 29212; conditions: Enterococcus faecalis, ATCC29212; E. faecalis ATCC 29212; read-out: MIC
Experimental: as §1, §2, §3, §4, §5, §6

S. haemolyticus (Meth^R) = assay: In vitro antibacterial evaluation, MIC by agar dilution, S. haemolyticus; conditions: Staphylococcus haemolyticus, read-out: MIC
Experimental: as §1, §2, §3, §4, §5, §6

[1] = tested on: S. aureus Col8A (Meth^S)(lac^-); assay: In vitro antibacterial evaluation, MIC by agar dilution, S. aureus Col8A; conditions: Staphylococcus aureus
Experimental: as §1, §2, §3, §4, §5, §6
The novel agents of this invention are notable for their enhanced activity against S. aureus Col and Enterococci (E. faecium and E. faecalis). The S. aureus Col strain is a high-level PBP2a producer, whereas S. aureus Col 8A, its isogenic partner, lacks PBP2a. […] Thus, the compounds of the present invention are effective against PBP2a-producing bacteria.

S. aureus ATCC 29213 = assay: In vitro antibacterial evaluation, MIC by agar dilution, S. aureus ATCC 29213; conditions: Staphylococcus aureus, ATCC29213
Experimental: as §1, §2, §3, §4, §5, §6

E. coli ATCC 25922 = assay: In vitro antibacterial evaluation, MIC by agar dilution, E. coli ATCC 25922; conditions: Escherichia coli, ATCC25922, read-out: MIC
Experimental: as §1, §2, §3, §4, §5, §6

E. faecium ATCC 35667 = assay: In vitro antibacterial evaluation, MIC by agar dilution, E. faecium ATCC 35667; conditions: Enterococcus faecium, ATCC35667, read-out: MIC
Experimental: as §1, §2, §3, §4, §5, §6

[2] = tested on: S. aureus 76 (Meth^R)(lac^+); assay: In vitro antibacterial evaluation, MIC by agar dilution, S. aureus 76; conditions: Staphylococcus aureus, read-out: MIC
Experimental: as §1, §2, §3, §4, §5, §6

[3] = S. aureus ATCC 29213, read-out: MIC

SMILES	MIC (P. aeruginosa ATCC 27853) [µg/mL]	MIC (E. faecalis ATCC 29212) [µg/mL]	MIC (S. haemolyticus (Meth^R)) [µg/mL]	MIC [1] [µg/mL]	MIC (S. aureus ATCC 29213; [3]) [µg/mL]	MIC (E. coli ATCC 25922) [µg/mL]	MIC (E. faecium ATCC 35667) [µg/mL]	MIC [2] [µg/mL]	MIC (S. aureus ATCC 29213) [µg/mL]
N#Cc1ccccc1SC1=C(C(=O)O)N2C(=O)[C@@H](NC(=O)/C(=N\OC3CCCC3)c3csc(N)n3)[C@H]2SC1 [Cmpd 53, (7R)-7-[(Z)-2-(aminothiazol-4-yl)-2-(cyclopentyloxyimino)acetamido]-3-(2-cyanophenylthio)-3-cephem-4-carboxylic acid]	8 (≈ 14 µM)	8 (≈ 14 µM)	8 (≈ 14 µM)	1 (≈ 1.75 µM)	1 (≈ 1.75 µM)	1 (≈ 1.75 µM)	8 (≈ 14 µM)	8 (≈ 14 µM)	–
CC(=O)NC(=N)SCc1ccccc1SC1=C(C(=O)O)N2C(=O)[C@@H](NC(=O)Cc3ccccc3)[C@H]2SC1 [Cmpd 78, (7R)-7-[(Phenylacetyl)amino]-3-(2-N-acetylamidinothiomethylphenylthio)-3-cephem-4-carboxylic acid]	> 32	4 (≈ 7.19 µM)	> 32	0.25 (≈ 0.449 µM)	–	> 32	4 (≈ 7.19 µM)	16 (≈ 28.7 µM)	0.25 (≈ 0.449 µM)
N=C(NC1CC1)SCc1ccccc1SC1=C(C(=O)O)N2C(=O)[C@@H](NC(=O)Cc3ccccc3)[C@H]2SC1 [Cmpd 79, (7R)-7-[(Phenylacetyl)amino]-3-(2-N-cyclopropylisothiouroniummethylphenylthio)-3-cephem-4-carboxylate, inner salt]	> 32	1	32	0.06	0.06	> 32	2	8	–
N=C(N)SCc1cccc(SC2=C(C(=O)O)N3C(=O)[C@@H](NC(=O)Cc4ccccc4)[C@H]3SC2)c1 [Cmpd 80, (7R)-7-[(Phenylacetyl)amino]-3-(3-isothiouroniummethylphenylthio)-3-cephem-4-carboxylate, inner salt]	> 32	1	8	< 0.06	< 0.06	16	2	8	–
Nc1nc(/C(=N/OC2CCCC2)C(=O)N[C@@H]2C(=O)N3C(C(=O)O)=C(Sc4cccnc4-c4ccccc4)CS[C@H]23)cs1 [Cmpd 86, (7R)-7-[(Z)-2-(aminothiazol-4-yl)-2-(cyclopentyloxyimino)acetamido]-3-(2-phenylpyridin-3-ylthio)-3-cephem-4-carboxylic acid]	32 (≈ 51.4 µM)	4 (≈ 6.42 µM)	16 (≈ 25.7 µM)	1 (≈ 1.61 µM)	1 (≈ 1.61 µM)	2 (≈ 3.21 µM)	2 (≈ 3.21 µM)	16 (≈ 25.7 µM)	–
NCc1ccccc1CC(=O)N[C@@H]1C(=O)N2C(C(=O)O)=C(Sc3ccnn3-c3ccccc3)CS[C@H]12 [Cmpd 96, (7R)-7-[((2-aminomethylphenyl)acetyl)amino]-3-(1-N-phenylpyrazol-5-ylthio)-3-cephem-4-carboxylic acid]	> 32	1 (≈ 1.92 µM)	16 (≈ 30.7 µM)	0.5 (≈ 0.959 µM)	0.25 (≈ 0.479 µM)	> 32	4 (≈ 7.67 µM)	16 (≈ 30.7 µM)	–
Nc1nc(/C(=N/OCCF)C(=O)N[C@@H]2C(=O)N3C(C(=O)O)=C(Sc4ccnn4-c4ccccc4)CS[C@H]23)c(Cl)s1 [Cmpd 98, (7R)-7-[(Z)-2-(2-amino-5-chlorothiazol-4-yl)-2-(2-fluoroethyloxyimino)acetamido]-3-(1-N-phenylpyrazol-5-ylthio)-3-cephem-4-carboxylic acid]	16 (≈ 25.6 µM)	1 (≈ 1.6 µM)	8 (≈ 12.8 µM)	–	0.5 (≈ 0.801 µM)	8 (≈ 12.8 µM)	4 (≈ 6.41 µM)	8 (≈ 12.8 µM)	–
N=C(N)SCc1ccccc1SC1=C(C(=O)O)N2C(=O)[C@@H](NC(=O)Cc3ccc(O)cc3)[C@H]2SC1 [Cmpd 99, (7R)-7-[((4-Hydroxyphenyl)acetyl)amino]-3-(2-isothiouroniummethylphenylthio)-3-cephem-4-carboxylic acid, inner salt]	> 32	1	16	–	0.125	> 32	1	16	–
N=C(N)SCCc1ccccc1SC1=C(C(=O)O)N2C(=O)[C@@H](NC(=O)Cc3ccccc3)[C@H]2SC1 [Cmpd 100, (7R)-7-[(Phenylacetyl)amino]-3-(2-(2-isothiouronium)ethylphenylthio)-3-cephem-4-carboxylate, inner salt]	> 32	1	16	–	< 0.06	> 32	4	8	–
O=C(Cc1ccccc1)N[C@@H]1C(=O)N2C(C(=O)O)=C(Sc3ccnn3-c3ccccn3)CS[C@H]12 [Cmpd 105, (7R)-7-[(Phenylacetyl)amino]-3-(1-N-(pyridin-2-yl)pyrazol-5-ylthio)-3-cephem-4-carboxylic acid]	> 32	1 (≈ 2.03 µM)	32 (≈ 64.8 µM)	0.25 (≈ 0.507 µM)	–	> 32	2 (≈ 4.05 µM)	16 (≈ 32.4 µM)	0.25 (≈ 0.507 µM)
O=C(COc1ccccc1)N[C@@H]1C(=O)N2C(C(=O)O)=C(Sc3ccnn3-c3ccccc3)CS[C@H]12 [Cmpd 112, (7R)-7-[(phenyloxyacetyl)amino]-3-(1-N-phenylpyrazol-5-ylthio) -3-cephem-4-carboxylic acid]	> 32	4 (≈ 7.87 µM)	32 (≈ 62.9 µM)	–	–	> 32	4 (≈ 7.87 µM)	16 (≈ 31.5 µM)	–
CSCC(=O)N[C@@H]1C(=O)N2C(C(=O)O)=C(Sc3ccccc3CSC(=N)NC(=N)N)CS[C@H]12 [Cmpd 126, (7R)-7-[(methylthioacetyl)amino]-3-(2-(N-amidino)isothiouroniummethylphenylthio)-3-cephem-4-carboxylate, inner salt]	> 32	1	–	0.125	–	> 32	2	16	0.125
N=C(N)NCc1ccccc1SC1=C(C(=O)O)N2C(=O)[C@@H](NC(=O)Cc3ccccc3)[C@H]2SC1 [Cmpd 128, (7R)-7-[(Phenylacetyl)amino]-3-(2-guanidiniummethylphenylthio)-3-cephem-4-carboxylate, inner salt]	> 32	2	–	≤ 0.06	≤ 0.06	> 32	2	16	–
N=C(N)SCc1ccccc1SC1=C(C(=O)O)N2C(=O)[C@@H](NC(=O)/C(=N\O)c3csc(N)n3)[C@H]2SC1 [Cmpd 129, (7R)-7-[(Z)-2-(Aminothiazol-4-yl)-2-(hydroxyimino)acetamido]-3-(2-isothiouroniummethylphenylthio)-3-cephem-4-carboxylate, inner salt]	> 32	0.25	16	≤ 0.06	≤ 0.06	2	–	8	–
N=C(N)SCc1ccccc1SC1=C(C(=O)O)N2C(=O)[C@@H](NC(=O)/C(=N\O)c3ccccc3)[C@H]2SC1 [Cmpd 136, (7R)-7-[(Z)-2-(Phenyl)-2-(hydroxyimino)acetamido]-3-(2-isothiouroniummethylphenylthio)-3-cephem-4-carboxylate, inner salt]	> 32	0.5	4	–	0.125	> 32	1	4	–

Source: patent US5607926A, “Cephalosporin antibiotics” (Microcide Pharmaceuticals, Inc., priority 1995, dated 1997)
